Reference: patent US20260226071A1, “2, 4-DIANILINOPYRIMIDINE-BASED AURORA-A KINASE SELECTIVE DEGRADATION INDUCING COMPOUNDS” (UPPTHERA, INC., priority 2023, published 2026)

Assays:
NCI-H446 cell line = test: Cell viability assay for NCI-H446 cell line; format: cell-based; details: Homo sapiens, NCI-H446, 120 h; H446 cells, 5 days culture, EZ-Cytox; read-out: IC50 value (Level)
How it was run: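 H446 cells seeded 24 h before treatment with compound in 3-fold dilutions, 1000 to 0.15 nM, then cultured 5 days at 37 °C, 5% CO2 in RPMI 1640/10% FBS. Viability read with EZ-Cytox (4 h) as absorbance at 450 nm.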

Aurora kinase A (AURKA) = molecular target: T1, Aurora kinase A (AURKA) (Homo sapiens, UniProt O14965); test: Luciferase assay for AURKA in HeLa LgBit (AURKA-HiBit KI) cell line; format: cell-based; details: HeLa LgBit (AURKA-HiBit KI) cells, measured after 12 hours
T1 construct: endogenous in cells; host or cells: HeLa LgBit (AURKA-HiBit KI), CRISPR/Cas9 knock-in at the endogenous AURKA locus
T1 sequence (O14965 1-403): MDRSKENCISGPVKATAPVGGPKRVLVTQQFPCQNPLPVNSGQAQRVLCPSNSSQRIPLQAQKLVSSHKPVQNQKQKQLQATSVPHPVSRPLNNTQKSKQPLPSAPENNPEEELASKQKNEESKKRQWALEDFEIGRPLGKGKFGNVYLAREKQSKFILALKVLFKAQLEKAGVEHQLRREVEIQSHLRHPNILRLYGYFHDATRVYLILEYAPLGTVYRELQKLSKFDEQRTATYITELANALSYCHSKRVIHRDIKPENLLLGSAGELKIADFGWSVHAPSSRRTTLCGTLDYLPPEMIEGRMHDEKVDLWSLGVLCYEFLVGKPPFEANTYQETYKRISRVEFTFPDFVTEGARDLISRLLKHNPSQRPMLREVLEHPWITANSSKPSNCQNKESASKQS
How it was run: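 HeLa cells stably expressing LgBit, with HiBit knocked in at the C-terminus of endogenous AURKA; 3×10^4 cells seeded, 18 h, then Endurazine substrate 2 h. Compounds tested at 10 nM or 100 nM; luminescence read at 470-480 nm after 12 h as real-time read-out.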

Row | Compound | IC50 (NCI-H446 cell line) [nM] | luminescence value (Level) (Aurora kinase A (AURKA); 10 nM compound) | luminescence value (Level) (Aurora kinase A (AURKA); 100 nM compound)
1 | O=C1CCC(c2ccc(N3CCC(N4CCC5(CC4)CC(NC(=O)Cc4ccc(Nc6ncc(F)c(Nc7ccc(C(=O)Nc8ccccc8Cl)cc7)n6)cc4)C5)CC3)c(F)c2)C(=O)N1 (stereo not drawn) [Compound 22, N-(2-chlorophenyl)-4-((2-((4-(2-((7-(1-(4-(2,6-dioxopiperidin-3-yl)-2-fluorophenyl)piperidin-4-yl)-7-azaspiro[3.5]nonan-2-yl)amino)-2-oxoethyl)phenyl)amino)-5-fluoropyrimidin-4-yl)amino)benzamide] | 100 to 150 | A (A is <0.3) | A (A is <0.2)
2 | O=C1CCC(c2ccc(N3CCC(N4CCC5(CC4)CC(NC(=O)c4ccc(Nc6ncc(F)c(Nc7ccc(C(=O)Nc8ccccc8Cl)cc7)n6)cc4)C5)CC3)c(F)c2)C(=O)N1 (stereo not drawn) [Compound 21, N-(2-chlorophenyl)-4-((2-((4-((7-(1-(4-(2,6-dioxopiperidin-3-yl)-2-fluorophenyl)piperidin-4-yl)-7-azaspiro[3.5]nonan-2-yl)carbamoyl)phenyl)amino)-5-fluoropyrimidin-4-yl)amino)benzamide] | < 50 | B (B is 0.3 to 0.5) | A (A is <0.2)
3 | O=C1CCC(Nc2cc(F)c(N3CCN(CCC4CCN(NC(=O)c5ccc(Nc6ncc(F)c(Nc7ccc(NC(=O)c8ccccc8F)cc7)n6)cc5F)CC4)CC3)cc2F)C(=O)N1 (stereo not drawn) [Compound 109, N-(4-(2-(4-(4-((2,6-dioxopiperidin-3-yl)amino)-2,5-difluorophenyl)piperazin-1-yl)ethyl)piperidin-1-yl)-2-fluoro-4-((5-fluoro-4-((4-(2-fluorobenzamido)phenyl)amino)pyrimidin-2-yl)amino)benzamide] | 50 to 100 | B (B is 0.3 to 0.5) | A (A is <0.2)
4 | O=C1CC[C@@H](Nc2ccc(N3CCN(CCC4CCN(NC(=O)c5ccc(Nc6ncc(F)c(Nc7ccc(C(=O)Nc8ccccc8Cl)cc7)n6)cc5)CC4)CC3)c(F)c2)C(=O)N1 [Compound 108, (R)—N-(2-chlorophenyl)-4-((2-((4-((4-(2-(4-(4-((2,6-dioxopiperidin-3-yl)amino)-2-fluorophenyl)piperazin-1-yl)ethyl)piperidin-1-yl)carbamoyl)phenyl)amino)-5-fluoropyrimidin-4-yl)amino)benzamide] | < 50 | A (A is <0.3) | A (A is <0.2)
5 | COc1cc(N2CCN(CCC3CCN(NC(=O)c4ccc(Nc5ncc(F)c(Nc6ccc(C(=O)Nc7ccccc7Cl)cc6)n5)cc4)CC3)CC2)c(F)cc1C1CCC(=O)NC1=O (stereo not drawn) [Compound 118, N-(2-chlorophenyl)-4-((2-((4-((4-(2-(4-(4-(2,6-dioxopiperidin-3-yl)-2-fluoro-5-methoxyphenyl)piperazin-1-yl)ethyl)piperidin-1-yl)carbamoyl)phenyl)amino)-5-fluoropyrimidin-4-yl)amino)benzamide] | 50 to 100 | B (B is 0.3 to 0.5) | A (A is <0.2)
6 | O=C1CCC(c2ccc(N3CCN(CCC4CCN(NC(=O)c5ccc(Nc6ncc(F)c(Nc7ccc(C(=O)Nc8ccccc8Cl)cn7)n6)cc5)CC4)CC3)cc2)C(=O)N1 (stereo not drawn) [Compound 98, N-(2-chlorophenyl)-6-((2-((4-((4-(2-(4-(4-(2,6-dioxopiperidin-3-yl)phenyl)piperazin-1-yl)ethyl)piperidin-1-yl)carbamoyl)phenyl)amino)-5-fluoropyrimidin-4-yl)amino) nicotinamide] | 100 to 150 | A (A is <0.3) | A (A is <0.2)
7 | CN(CC1CCN(c2ccc(NC3CCC(=O)NC3=O)cc2)CC1)C[C@H]1CC[C@H](NC(=O)c2ccc(Nc3ncc(F)c(Nc4ccc(C(=O)Nc5ccccc5Cl)cc4)n3)cc2)CC1 (stereo partly drawn) [Compound 38, N-(2-chlorophenyl)-4-[[2-[4-[[4-[[[1-[4-[(2,6-dioxo-3-piperidyl)amino]phenyl]-4-piperidyl]methyl-methyl-amino]methyl]cyclohexyl]carbamoyl]anilino]-5-fluoro-pyrimidin-4-yl]amino]benzamide] | > 200 | B (B is 0.3 to 0.5) | B (B is 0.2 to 0.4)
8 | C[C@@H]1CN(CCC2CCN(NC(=O)c3ccc(Nc4ncc(F)c(Nc5ccc(C(=O)Nc6ccccc6Cl)cc5)n4)cc3)CC2)CCN1c1ccc(C2CCC(=O)NC2=O)cc1 (stereo partly drawn) [Compound 116, N-(2-chlorophenyl)-4-((2-((4-((4-(2-((3R)-4-(4-(2,6-dioxopiperidin-3-yl)phenyl)-3-methylpiperazin-1-yl)ethyl)piperidin-1-yl)carbamoyl)phenyl)amino)-5-fluoropyrimidin-4-yl)amino)benzamide] | < 50 | A (A is <0.3) | A (A is <0.2)
